One experiment relates to cortical neuron cultures. In words: Cortical neuron assay (neurite outgrowth in dissociated cortical neuron cultures). It is filed as cell-based, rat. To be noted: Rattus norvegicus, Cortical neurone; 72 hours treatment, neurite outgrowth; read-out: EC50 in cortical neuron assays. On the procedure: Dissociated cortical neuron cultures were prepared as previously described (Liu et al., Screening of Immunophilin Ligands by Quantitative Analysis of Neurofilament Expression and Neurite Outgrowth in Cultured Neurons and Cells, J. Neurosci. Methods, 2007 Jul. 30; 163(2):310-20).
Briefly, embryonic day 15 rat fetuses were collected and dissected in ice-cold PBS. Dissected cortices were pooled together and transferred to an enzymatic dissociation medium containing papain. After 30 minutes, the tissue was mechanically triturated with a fire-polished glass Pasteur pipette. Single-cell suspensions in complete media were seeded on poly-L-ornithine and laminin coated 96-well plates. After 24 hours, cultures were treated with various concentrations of compound for 72 hours. The cultures were then fixed and stained with an anti-tubulin primary antibody (TUJ-1) and a fluorescent-tagged secondary antibody. Neurite outgrowth was determined by using the Enhanced Neurite Outgrowth (ENO) algorithm with the Cellomics ArrayScan and expressed as average neurite length or total neurite length per cell.

Experiment [1] relates to Spinal cord neuron cultures. In words: Spinal cord neuron assay. It is filed as cell-based. The settings on record: Rattus norvegicus, 72 hours treatment, read-out: EC50 in spinal cord neuron assays. On the procedure:
Spinal cord neuron cultures were prepared from embryonic day 15 (E15) rat embryos (Liu et al., Screening of Immunophilin Ligands by Quantitative Analysis of Neurofilament Expression and Neurite Outgrowth in Cultured Neurons and Cells, J. Neurosci. Methods, 2007 Jul. 30; 163(2):310-20). The embryos were collected and their spinal cords were removed in ice-cold phosphate-buffered saline (PBS) without Ca^2+ and Mg^2+. Dissected pieces of spinal cord tissue were pooled together and transferred to an enzymatic dissociation media containing 20 IU/mL papain in Earle's balanced salt solution (Worthington Biochemical, Freehold, N.J.) and incubated for 30 minutes at 37° C. After enzymatic dissociation, the papain solution was aspirated and the tissue mechanically triturated with a fire-polished Pasteur pipette in complete media [Neurobasal Medium with B-27 supplement (Gibco, Grand Island, N.Y.), 100 IU/mL penicillin, 100 µg/mL streptomycin, […] aphidicolin, 0.5 mM glutamate] containing 2,000 IU/mL DNase and 10 mg/mL ovomucoid protease inhibitor. Single-cell suspensions in complete media were plated on pre-coated poly-L-ornithine/laminin 96-well plates (Becton-Dickinson, Bedford, Mass.) at a density of 1.0×10^4 cells/well. Spinal cord neurons were maintained for 24 hours then exposed to vehicle or various concentrations of compound for 72 hours.

Experiment [2] relates to Mesencephalic dopaminergic neuron cultures. The experiment can be described thus: Dopaminergic uptake assay (3H-dopamine uptake after MPP+ exposure). It is filed as cell-based, rat. To be noted: read-out: EC50 in dopaminergic uptake assays. The method, then: Mesencephalic dopaminergic neuron cultures were prepared as described in Pong et al., J. Neurochem. 69: 986-994, 1997, which is incorporated herein by reference in its entirety. Embryonic day 15 (E15) rat fetuses were collected and dissected in ice-cold phosphate-buffered saline (PBS). The ventral piece of tissue compromising the mesencephalic dopaminergic region was dissected out. Dissected pieces of tissue were pooled together and transferred to an enzymatic dissociation medium containing 20 IU/mL papain in Earle's balanced salt solution (Worthington Biochemical, Freehold, N.J., USA) and incubated for 60 minutes at 37° C. After enzymatic dissociation, the papain solution was aspirated and the tissue mechanically triturated with a fire-polished glass Pasteur pipette in complete medium (equal volumes of minimum essential medium (MEM) and F-12 nutrient mixture (GibcoBRL) supplemented with 0.1 mg/mL apotransferrin and 2.5 μg/mL insulin) containing 2,000 IU/mL DNase and 10 mg/mL ovomucoid protease inhibitor.
For dopamine uptake experiments, single-cell suspensions in complete media were seeded on poly-L-ornithine and laminin coated 24-well plates. The cultures were maintained for seven days prior to experimentation. […]
After 48 hours growth of mesencephalic dopaminergic neuron cultures following MPP+ exposure, high-affinity 3H-dopamine uptake was performed using a modified method described by Prochiantz et al., Nature 293: 570-572, 1981, which is incorporated herein by reference. Cultures were washed with pre-warmed PBS containing 5.6 mM glucose and 1 mM ascorbic acid. Cultures were then incubated for 15 minutes at 37° C. with 50 nM 3H-dopamine (31 Ci/mmol, DuPont-NEN, Wilmington, Del., USA). The cultures were washed twice with buffer and lysed with 0.5N NaOH. The lysate was transferred to a scintillation vial containing Ultima Gold scintillation cocktail and radioactivity was determined with a liquid scintillation counter. Alternatively, culture lysates can be washed twice with buffer, incubated for 2 hours at room temperature with Optiphase Supermix scintillation cocktail (Wallac Scintillation Products, Gaithersburg, Md., USA), and radioactivity measured with a liquid scintillation counter.

For six compounds, EC50 results are on record in patent US20090209527A1, “Methods for Using Rapamycin Analogues in the Treatment of Neurological Disorders” (Wyeth, priority 2008, published 2009).

pEC50: −log10 of the molar value. Like-named read-outs stand apart in the source and are kept apart here. Bounds are passed on as bounds.

In the case of `CO[C@H]1C[C@@H]2CC[C@@H](C)[C@@](O)(O2)C(=O)C(=O)N2CCCC[C@H]2C(=O)O[C@H]([C@H](C)C[C@@H]2CC[C@@H](O)[C@H](OC)C2)CC(=O)[C@H](C)/C=C(\C)[C@@H](O)[C@@H](OC)C(=O)[C@H](C)C[C@H](C)[C@@H]2C=C[C@H](/C=C/1C)ON2c1ccccc1` [Example 1, 9,27-dihydroxy-3-{2-[4-hydroxy-3-methoxycyclohexyl]-1-methylethyl}-10,21-dimethoxy-6,8,12,14,20,26-hexamethyl-37-phenyl-4,9,10,12,13,14,15,18,21,22,23,24,25,26,27,32,33,34,34a-nonadecahydro-3H-23,27-epoxy-18,15-(epoxyimino)pyrido[2,1-c][1,4]oxazacyclohentriacontine-1,5,11,28,29(6H,31H)-pentone], the pEC50 (usually the negative decadic logarithm of the EC50, by convention in mol/L) in the experiment on cortical neuron cultures is greater than 6.00; in experiment [1] it was greater than 6.00; in experiment [2] (Rattus norvegicus, Neuron), greater than 6.00.
On to `CO[C@H]1C[C@@H]2CC[C@@H](C)[C@@](O)(O2)C(=O)C(=O)N2CCCC[C@H]2C(=O)O[C@H]([C@H](C)C[C@@H]2CC[C@@H](OC(=O)C(C)(CO)CO)[C@H](OC)C2)CC(=O)[C@H](C)/C=C(\C)[C@@H](O)[C@@H](OC)C(=O)[C@H](C)C[C@H](C)/C=C/C=C/C=C/1C` [CCI-779, reference compound], for which the pEC50 was less than 6.00 with cortical neuron cultures and less than 6.00 in experiment [2] (Rattus norvegicus, Neuron).
Rapamycin phenyltriazolinedione: in experiment [2], the pEC50 was greater than 6.00.
On to `CO[C@H]1C[C@@H]2CC[C@@H](C)[C@@](O)(O2)C(=O)C(=O)N2CCCC[C@H]2C(=O)O[C@H]([C@H](C)C[C@@H]2CC[C@@H](O)[C@H](OC)C2)CC(=O)[C@H](C)/C=C(\C)[C@@H](O)[C@@H](OC)C(=O)[C@H](C)C[C@H](C)/C=C/C=C/C=C/1C` [rapamycin], for which the pEC50 in the experiment with cortical neuron cultures was less than 6.00; in experiment [2] (Rattus norvegicus, Neuron), less than 6.00.
In the case of `CO[C@H]1C[C@@H]2CC[C@@H](C)[C@@](O)(O2)C(=O)C(=O)N2CCCC[C@H]2C(=O)O[C@H]([C@H](C)C[C@@H]2CC[C@@H](OC(=O)C(C)(C)Cc3ccccn3)[C@H](OC)C2)CC(=O)[C@H](C)/C=C(\C)[C@@H](O)[C@@H](OC)C(=O)[C@H](C)C[C@H](C)C2C=CC(/C=C/1C)ON2c1ccccc1` [Example 6, 9,27-dihydroxy-3-{-2-[4-hydroxy-3-methoxycyclohexyl]-1-methylethyl}-10,21-dimethoxy-6,8,12,14,20,26-hexamethyl-37-phenyl-4,9,10,12,13,14,15,18,21,22,23,24,25,26,27,32,33,34,34a-nonadecahydro-3H-23,27-epoxy-18,15-(epoxyimino) pyrido[2,1-c][1,4]oxazacyclohentriacontine-1,5,11,28,29(6H,31H)-pentone ester with-2,2-dimethyl-3′-(pyridin-2-yl)-propionic acid], the pEC50 in experiment [1] is greater than 6.00; in experiment [2] (Rattus norvegicus, Neuron) it was greater than 6.00.
As to `CO[C@H]1C[C@@H]2CC[C@@H](C)[C@@](O)(O2)C(=O)C(=O)N2CCCC[C@H]2C(=O)O[C@H]([C@H](C)C[C@@H]2CC[C@@H](O)[C@H](OC)C2)CC(=O)[C@H](C)/C=C(\C)[C@@H](O)[C@@H](OC)C(=O)[C@H](C)C[C@H](C)C2C=CC(/C=C/1C)ON2c1c(Cl)cccc1Cl` [Example 3], the pEC50 (in the experiment on cortical neuron cultures; in experiment [1]) was greater than 6.00 throughout.
